The data set in a line: Properties of commercially-available near infrared fluorochromes. The format is physicochemical. Particulars: Cy5.5 free in solution, FIG. 3A. The text has this: Fluorescent probes with excitation and emission wavelengths in the near infrared spectrum are used, i.e., 650-1300 nm. Use of this portion of the electromagnetic spectrum maximizes tissue penetration and minimizes absorption by physiologically abundant absorbers such as hemoglobin (<650 nm) and water (>1200 nm). […] Table 1 summarizes information on the properties of six commercially-available near infrared fluorochromes, whose structures are shown in FIGS. 2A and 2B.

Take Cy5.5: the “emission wavelength / peak emission” value turned out to be 694 nm.
